Values of other authors in patent publication US20200330542A1, “COMPOSITION FOR THE ACUTE AND CHRONIC TREATMENT OF CONSTIPATION” (NEILOS S.R.L., priority 2017, published 2020).

Conditions: human, in vivo

In the case of glucomannan, the tolerability is listed as “well tolerated without significant side effects”.
